Laboratory results as given in patent EP0498680A1, “New beta-amino-alpha-hydroxycarboxylic acids and their use” (Sankyo Company Limited, priority 1991, dated 1992).

System: HIV
Assay: Inhibition of HIV proliferation in CEM cells
Assay type: cell-based
Settings: 1 µM (0.6 µg/ml) of the test compound, 1 week
Protocol: CEM cells were inoculated in growth medium as defined in a) above, to a density of 2 x 10⁴ cells/ml. The inoculum was then seeded with a similar volume of serial 1 : 3 dilutions of the viral stock [a filtered preparation of the 48-hour culture supernatant of Molt4/HTLVIIIB cells prepared as described in Test Example 3 a) above]. The seeded inoculum was then cultured at 37°C under a 5% carbon dioxide atmosphere in the presence of 1 µM of the test compound (compound no. 14). After 1 week, the culture was spun down and the supernatant was collected. HIV antigen in the supernatant was determined as described in b) above.

(2S,3S)-[3-(N-3′-Hydroxyquinoxaline-2′-carbonyl-L-asparaginyl)amino-2-hydroxy-4-phenylbutyryl]-L-proline t-butyl ester [Compound No. 14]
spread of HIV (HIV antigen in the supernatant): sufficient to block the spread of HIV almost completely
